Here are results for one molecule from patent US7834019B2, “Substituted pyrazolo[3,4-d]pyrimidinone derivatives” (Banyu Pharmaceutical Co., Ltd., priority 2006, dated 2010).

The test system of this assay is Cdc2 (Cdk1) tyrosine 15-phosphorylation. Nature of the assay: Cdc2 (Cdk1) tyrosine 15-phosphorylation-inhibitory effect in NCI-H1299 cells + camptothecin (ELISA). It counts as cell-based. The settings on record: Homo sapiens, camptothecin 200 nM for 16 hours, then test compound with nocodazole for 8 hours, read-out: Cdc2-Y15 Phosphorylation-Inhibitory Effect (H1299, + camptothecin) (EC50). The source says:
Pharmaceutical Text 2 (Method of Determining Drug Potency in Cells (Cdc2 (Cdk1) Tyrosine 15-Phosphorylation-Inhibitory Effect))
Fetal bovine serum (FBS) was obtained from Morgate; media RPMI1640 and DMEM were from Invitrogen; camptothecin was from Sigma; gemcitabine was from Nippon Eli Lilly; nocodazole and protease inhibitor cocktail were from Sigma; rabbit anti-Cdc2 antibody and mouse anti-Cdc2 antibody were from Santa Cruz Biotechnology; rabbit anti-tyrosine 15-phosphorylated Cdc2 antibody and horseradish peroxidase-labeled anti-mouse IgG antibody were from Cell Signaling Technology; sure blue reserve TMB peroxidase substrate was from Kirkegaard and Perry Laboratories. […]
In the method of using NCI-H1299 cells, the cells were suspended in RPMI1640 containing 10% FBS, and the cell suspension was applied to a 96-well Nunclondelta-processed plastic plate (bought from Nunc), in an amount of 2000 cells/100 μL/well, in which the cells were incubated overnight in 5% CO2-95% air at 37° C. […] Cdc2 was determined through ELISA as follows: A rabbit anti-Cdc2 antibody solution, which had been diluted 200-fold with 50 mM carbonate-bicarbonate buffer (pH 9.6), was applied to a 96-well maxisorpimmuno plate (bought from Nunc), in an amount of 50 μL/well, and statically kept overnight at 4° C. so as to fix the antibody on the plate. […]

As to `C=CCn1c(=O)c2cnc(Nc3ccc(N4CCN(C)CC4)cc3)nc2n1-c1cccc(C(C)(C)O)n1` [Example 53, 2-allyl-1-[6-(1-hydroxy-1-methylethyl)pyridin-2-yl]-6-{[4-(4-methylpiperazin-1-yl)phenyl]amino}-1,2-dihydro-3H-pyrazolo[3,4-d]pyrimidin-3-one], the EC50 (as a rule, the midpoint of the concentration-response curve) is 68 nM.
